Reference: ChEMBL document CHEMBL4000188, “Synthesis and antimicrobial evaluation of novel analogues of dehydroabietic acid prepared by CH-Activation” (Eur J Med Chem, 2017)
Converted amounts (≈) assume the structure as drawn. The source made the active and inactive calls. The calls are words filed in the database; no cut-off is given here.

Legend:
[1] = Solubility of the compound in DMSO; format: physicochemical
[2] = test system: Staphylococcus aureus; assay: Anti-bacterial activity against methicillin-resistant Staphylococcus aureus ATCC 43300 measured after 18 hrs; format: functional; conditions: ATCC 43300, 18 h
[3] = test system: Staphylococcus aureus; assay: Anti-bacterial activity against methicillin/oxacillin-resistant Staphylococcus aureus ATCC 43300 at 32 ug/ml measured after 18 hrs; format: functional

| solubility [1] | SMILES | Activity [3] | also measured |
| --- | --- | --- | --- |
| Insoluble | COc1ccc(C[C@@]2(C(N)=O)CCC[C@]3(C)c4ccc(C(C)C)cc4CC[C@@H]23)cc1 | – | – |
| – | CN[C@H](CC(C)C)C(=O)N[C@H]1C(=O)N[C@@H](CC(N)=O)C(=O)N[C@H]2C(=O)N[C@H]3C(=O)N[C@H](C(=O)N[C@H](C(=O)O)c4cc(O)cc(O)c4-c4cc3ccc4O)[C@H](O)c3ccc(c(Cl)c3)Oc3cc2cc(c3O[C@@H]2O[C@H](CO)[C@@H](O)[C@H](O)[C@H]2O[C@H]2C[C@](C)(N)[C@H](O)[C@H](C)O2)Oc2ccc(cc2Cl)[C@H]1O [VANCOMYCIN] | – | MIC80 [2]: 1 µg/mL (≈ 0.69 µM) |
| – | CC(C)c1ccc2c(c1)CC[C@H]1[C@](Cc3ccc(C(=O)O)cc3)(C(N)=O)CCC[C@]21C | – | MIC80 [2]: 32 µg/mL (≈ 76.3 µM) |
| Insoluble | Cc1ccc(C[C@@]2(C(N)=O)CCC[C@]3(C)c4ccc(C(C)C)cc4CC[C@@H]23)cc1 | – | – |
| – | COc1ccc(C[C@@]2(C(=O)O)CCC[C@]3(C)c4ccc(C(C)C)cc4CC[C@@H]23)cc1 | Active | – |
| – | Cc1ccc(C[C@@]2(C(=O)O)CCC[C@]3(C)c4ccc(C(C)C)cc4CC[C@@H]23)cc1 | Active | – |
| Insoluble | CC(C)c1ccc2c(c1)CC[C@H]1[C@](Cc3ccc(C(F)(F)F)cc3)(C(N)=O)CCC[C@]21C | – | – |
| – | CC(C)c1ccc2c(c1)CC[C@H]1[C@](Cc3ccc(C(F)(F)F)cc3)(C(=O)O)CCC[C@]21C | Active | – |
